Earlier results in article PMC6503469, “The Use of Molecular Descriptors To Model Pharmaceutical Uptake by a Fish Primary Gill Cell Culture Epithelium” (Environmental Science & Technology, 2018).
Counter-ions that a name gives are not always drawn. Like-named read-outs stand apart in the source and are kept apart here.

Key:
[1] = source not stated; for PSA: polar surface area; for pKa: molecular descriptor; for log D: octanol–water distribution coefficient at pH 7.4; for log Kow: octanol–water partition coefficient; for log S: molecular descriptor (solubility)
[2] = not given; remark: listed apart in the source
[3] = design: method as in PMID 28853873; conditions: adult zebrafish
[4] = design: method as in Chen et al 2017; conditions: pH 7.6, after 6h exposure to 12.5 µg/L; ref Chen et al 2017
[5] = design: method as in Nallani et al 2012; conditions: pH 7.4, exposed to 83 µg/L for 7 days; ref Nallani et al 2012

CC(=O)Nc1nnc(S(N)(=O)=O)s1 [acetazolamide]
PSA [1]: 115.04 Å^2

C[C@H]1C[C@H]2[C@@H]3CCC4=CC(=O)C=C[C@]4(C)[C@@]3(Cl)[C@@H](O)C[C@]2(C)[C@@]1(O)C(=O)CO [beclomethasone]
pKa [1]: 13.85 | log D [1]: 4.16 | log Kow [1]: 3.49 | PSA [1]: 106.97 Å^2 | Plasma concentration (pH 7.4, 21 days exposure to 816 ng/L, dipropionate rapidly metabolized, combined values, ref Margiotta-Casaluci et al. 2016): 0.06 ± 0.035 µg/mL

NC(=O)N1c2ccccc2C=Cc2ccccc21 [carbamazepine]
log S [1]: –3.2 | log D [1]: 2.28 | log Kow [1]: 2.28 | PSA [1]: 46.33 Å^2 | Plasma concentration ([2]; pH 7.7, after 10 days exposed to 43 µg/L, ref Lahti et al 2011): 0.025 µg/mL | BCFss [3]: 1.41 ± 7.13 L kg^–1

O=C(O)Cc1ccccc1Nc1c(Cl)cccc1Cl [diclofenac, diclofenac sodium salt]
log S [1]: –4.8 | log D [1]: 1.22 | log Kow [1]: 1.9 | PSA [1]: 52.16 Å^2 | Plasma concentration (pH 7.6, after 48h exposure to 24 µg/L, ref Bickley et al 2017): 0.205 µg/mL | Plasma concentration (pH 7.6, after 21 days exposed to 0.95 µg/L, ref Bickley et al 2017): 0.026 µg/mL

Cc1ccc(C)c(OCCCC(C)(C)C(=O)O)c1 [gemfibrozil]
Plasma concentration [4]: 0.183 µg/mL | log S [1]: –4 | pKa [1]: 4.42 | log D [1]: 1.40 | log Kow [1]: 4.77 | PSA [1]: 46.53 Å^2

CC(C)Cc1ccc(C(C)C(=O)O)cc1 (centres unmarked) [ibuprofen, ibuprofen sodium salt]
log S [1]: –3.5 | log D [1]: 0.29 | log Kow [1]: 2.48 | PSA [1]: 40.10 Å^2 | Plasma concentration (pH 7.4, after 24h exposed to 107 µg/L, ref Patel et al 2016): 0.55 µg/mL

CC(C(=O)O)c1cccc(C(=O)c2ccccc2)c1 (centres unmarked) [ketoprofen]
log D [1]: 0.06 | log Kow [1]: 0.97 | PSA [1]: 54.37 Å^2 | Plasma concentration ([2]; pH 7.4, after 14 days exposure to 91 µg/L, ref Cuklev et al 2012): 0.001 µg/mL

C#C[C@]1(O)CC[C@H]2[C@@H]3CCC4=CC(=O)CC[C@@H]4[C@H]3CC[C@@]21C [norethindrone, norethindrone-19]
pKa [1]: 17.59 | log D [1]: 2.98 | log Kow [1]: 3.15 | PSA [1]: 37.30 Å^2 | Plasma concentration [5]: 0.95 µg/mL

CC(=O)CC(c1ccccc1)c1c(O)c2ccccc2oc1=O (centres unmarked) [warfarin]
log S [1]: –3.8 | pKa [1]: 5.08 | log D [1]: 0.16
